In US5792784A, “Coupling product obtained from histamine and an amino acid” (Babizhayev; Marc, priority 1993, dated 1998):

Legend:
[1] = "Peroxidase" activity: reduction of 13-monoperoxide of linoleic acid (L-OOH); assay type: biochemical; conditions: for "peroxidase" activity: 13-monoperoxide linoleic acid 0.5 mM, control 36.7
Procedure: Lipid peroxides evolution is monitored with the help of 3 methods:
1°) spectrophotometric measure at 233 nm
(O. S. Privett, C. Nickell, W. O. Lundberg, and P. D. Bayer, dans J.Am.Oil Chem. Soc, Vol 32 (1955), P.505-511
2°) Iodometric dosage: M.Hicks' and J. M. Gebicki's method, Analytical Biochemistry, vol 99 (1979), p 249-253.
3°) Chromatography on silica gel plate (hexane/ether/acetic acid 8/7/0.1).
(a) 13-monoperoxide linoleic acid 0.5 mM without reducing agent (preparation according to H. W. Gardner's method Lipids, Vol.10 (1975), p. 248-252).

[2] = test system: cataract; experiment: Cataract patients: modification of the visual acuity at the end of 24 months; assay type: in vivo; conditions: 24 months
Text: This example concerns the utilization of the β-alanyl-histamine to treat patients affected by cataract.
The study has been designed for a prospective evaluation of the modifications of the lens opacity in patients effected by cataract. All the patients have undergone an initial ophtalmic examination. It involved the making of the medical historical record of the patient, a measurement of the visual acuity at a maximum correction, direct or indirect ophtalmoscopies, an evaluation of the opacities with the slit lamp, a clinical grading of the lens after maximal mydriasis, a classification according to the cataract type, and lens pictures by retroillumination. Moreover, samples of blood have been taken at the beginning, then in follow-up for chemical analysis.
The general view has allowed to establish the initial state of patients before the treatment (definition of "base line").
Follow-up of ophtalmic examinations were carried out every two weeks for two months, then every month. They included maximum visual acuity after correction, direct or indirect ophtalmoscopies, a slit lamp examination, and after a maximum dilation of the pupil (excluding patients with primary open-angle glaucoma), a clinical lens grading, a classification of the cataract. Pictures also have been taken on lens observed by retroillumination or with the slit lamp.
In this study, differents groups have been determined, to be seen:
A group reference 1, with non-treated patients (5 patients, 7 eyes) […]
A group 3, has been submitted to the same treatment than the group 2, stimulated by an "attack type of treatment" during the first two weeks: 2 subcon-junctival junctival injections twice a week of 0.10 to 0.15 ml of the saline defined for the group 2 (3 patients, 4 eyes).
A group 4, which was given a local dose by way of an eye drop of isotonic saline twice a day (5 patients 7 eyes), the group 4 being like the group 1, a reference group.
Following the protocol described above, we determine the values of the optic density of the lens according to its opacity as well as the visual acuity, and the whole for 24 months. Considering these two parameters, we obtain tables giving results concerning the modification of the visual acuity at the end of 24 months in Tables 1 and 2, and the results concerning the modification of the visual opacity at the end of 24 months in Tables 3 and 4.

[3] = groups 2 and 3, start acuity 20/30
[4] = groups 2 and 3, start acuity 20/40
[5] = groups 2 and 3, start acuity 20/50
[6] = groups 2 and 3, start acuity 20/70
[7] = groups 2 and 3, start acuity 20/100
[8] = groups 2 and 3, total of 19 eyes

Structure (SMILES): NCCC(=O)NCCc1c[nH]cn1 [β-alanyl-histamine]
- "peroxidase" activity ([1]; 10 mM): 138.1 mol of L-OOH reduced/hour
- "peroxidase" activity ([1]; 20 mM): 187.5 mol of L-OOH reduced/hour
- "peroxidase" activity with the adding of EDTA ([1]; EDTA 0.5 mM): completely inhibited
- improvement of the visual acuity + (number of eyes) ([2]; groups 2 and 3, start acuity 20/25): 1 eyes
- improvement of the visual acuity + (number of eyes) [2, 3]: 1 eyes
- improvement of the visual acuity ++ (number of eyes) [2, 3]: 4 eyes
- improvement of the visual acuity + (number of eyes) [2, 4]: 1 eyes
- improvement of the visual acuity ++ (number of eyes) [2, 4]: 3 eyes
- improvement of the visual acuity + (number of eyes) [2, 5]: 1 eyes
- improvement of the visual acuity ++ (number of eyes) [2, 5]: 1 eyes
- improvement of the visual acuity + (number of eyes) [2, 6]: 1 eyes
- improvement of the visual acuity ++ (number of eyes) [2, 6]: 1 eyes
- improvement of the visual acuity ++ (number of eyes) [2, 7]: 1 eyes
- improvement of the visual acuity +++ (number of eyes) [2, 7]: 2 eyes
- regression of the visual acuity ++ (number of eyes) [2, 7]: 1 eyes
- improvement of the visual acuity ++ (number of eyes) ([2]; groups 2 and 3, start acuity 20/200): 1 eyes
- improvement of the visual acuity + (number of eyes) [2, 8]: 5 eyes
- improvement of the visual acuity ++ (number of eyes) [2, 8]: 11 eyes
- improvement of the visual acuity +++ (number of eyes) [2, 8]: 2 eyes
- regression of the visual acuity + (number of eyes) [2, 8]: 0 eyes
- regression of the visual acuity ++ (number of eyes) [2, 8]: 1 eyes
- regression of the visual acuity +++ (number of eyes) [2, 8]: 0 eyes
- improvement of the vision and regression of cataract ([2]; two parameters: visual acuity and opacity): very significant in the improvement of the vision and the regression of cataract
